{
  "source": "paper PMC7801264",
  "about": "“Farnesyl Transferase Inhibitor Lonafarnib Enhances α7nAChR Expression Through Inhibiting DNA Methylation of CHRNA7 and Increases α7nAChR Membrane Trafficking” (Frontiers in Pharmacology, 2020)",
  "biological_target": "T1, α7 nicotinic acetylcholine receptor (α7nAChR) (Mus musculus, UniProt P49582)",
  "T1 construct": "gene Chrna7; native receptor in hippocampal CA1 pyramidal cells (brain slices)",
  "T1 sequence (P49582 23-502)": "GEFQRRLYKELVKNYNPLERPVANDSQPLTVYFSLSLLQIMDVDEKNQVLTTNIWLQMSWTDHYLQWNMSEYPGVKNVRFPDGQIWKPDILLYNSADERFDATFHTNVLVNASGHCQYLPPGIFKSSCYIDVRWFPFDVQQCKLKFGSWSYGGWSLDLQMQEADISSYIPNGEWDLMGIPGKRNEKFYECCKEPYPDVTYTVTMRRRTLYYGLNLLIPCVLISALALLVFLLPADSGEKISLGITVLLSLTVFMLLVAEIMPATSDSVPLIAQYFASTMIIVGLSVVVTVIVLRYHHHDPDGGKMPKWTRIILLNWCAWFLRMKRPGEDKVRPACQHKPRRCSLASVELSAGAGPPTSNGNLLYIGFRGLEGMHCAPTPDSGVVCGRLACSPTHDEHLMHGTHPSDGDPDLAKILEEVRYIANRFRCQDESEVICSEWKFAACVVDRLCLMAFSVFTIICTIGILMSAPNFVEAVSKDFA",
  "experiment": "whole cell patch-clamp of ACh-evoked inward current in mouse hippocampal slices, dose-response",
  "data": [
    {"smiles": "CC(=O)OCC[N+](C)(C)C", "note": "[acetylcholine]", "values": [
      {"measurement": "EC50", "value": 431, "unit": "µM"}
    ]}
  ]
}
